Legend:
[1] = target: T1, strychnine-insensitive glycine receptors (Rattus norvegicus, UniProt P35439); settings: value used in the K calculation; read-out: dissociation constant KD of [3H]5,7DCKA; cited from earlier work
T1 construct: Brains are immediately removed and forebrains dissected; from tissue; host or cells: rat forebrain membranes (P2/P3 pellet, washed, frozen), male Sprague-Dawley

[2] = tested on: MES; settings: rats; cited from earlier work
[3] = Preclinical margin of safety (protective index); format: in vivo; settings: preclinical profile
[4] = tested on: metrazol; settings: rats; cited from earlier work
[5] = target: T1, strychnine-insensitive glycine receptors; experiment: biochemical; format: binding
Experimental: Male Sprague-Dawley rats weighing 150-200 g are housed under a 12-hour light/dark cycle with access to food and water ad libitum. Animals are anesthetized with CO2 and sacrificed by decapitation. Brains are immediately removed and forebrains dissected, weighed and placed in 10 volumes (original wet weight volume) of 5 mM Hepes/4.5 mM Tris buffer (HTS; pH 7.8) containing 0.32 M sucrose. Tissue preparation is performed at about 4° C unless otherwise stated. Tissues are homogenized using a Brinkmann Polytron (setting 6, 30 seconds), diluted to 50 volumes in HTS-sucrose, and centrifuged at 1,000 xg for 10 minutes. The resultant pellet (P1) is discarded and supernatant centrifuged at 20,000 xg for 20 minutes. The resultant pellet (P2) is resuspended in HTS and centrifuged at 8,000 xg for 20 minutes. The supernatant and outer buffy coat (remaining pellet core discarded) is centrifuged at 20,000 xg for 20 minutes. The resultant pellet (P2/P3) is resuspended in HTS containing 1 mM EDTA and centrifuged at 20,000 xg for 20 minutes. The P2/P3 pellet is resuspended in HTS and the "washing" procedure is repeated two more times. The P2/P3 pellet is then resuspended in 5 volumes of HTS, frozen on dry-ice and stored at -80° C. for at least 72 hours prior to binding assay.
At the time of the assay, the appropriate amount of tissue is thawed and resuspended in 50 mM Hepes-KOH buffer (pH 8.0 at 4° C.) and "washed" twice by resuspension and centrifugation at 20,000 xg for 20 minutes. The binding of [^3 H]5,7DCKA is performed as described by Baron et al. Env. J. Pharmacol 206: 149-154 (1991). Assays are performed at 4° C. using quadruplicate samples in a total volume/tube of 1-ml consisting of: 500 ul membrane suspension (200-300 ug protein/assay tube) in 50 mM Hepes-KOH buffer (pH 8.0 at 4° C.), 100 ul [^3 H]5,7DCKA solution (19-21 nM; specific activity 18.2 Ci/mmol), 100 ul drug or buffer, and 300 ul buffer. […] Felbamate, solutions of 10 mM and 100 mM, are dissolved in 40-50% and 100% DMSO, respectively, and serial dilutions are performed. Binding reactions are initiated by adding the tissue homogenate and terminated after a 15 minute incubation period by rapid filtration through Brandel GF/B filters using a Brandel M-24 cell harvester. This filtration is followed by two 5-ml rinses with ice-cold buffer. Radioactivity is monitored in a Beckman LS 5801 liquid scintillation counter.
Displacement curves and IC50 values were analyzed using Graphpad (ISI Software, Philadelphia, Pa.).

[6] = tested on: hippocampal slices; experiment: Hippocampal slice hypoxia model (evoked potential recovery); format: cell-based, rat; settings: for evoked potential (population spike) recovery: after one hour recovery
Experimental: Sprague-Dawley rats are briefly anesthetized with Halothane and then decapitated. The brain is removed and the hippocampus dissected. Transverse hippocampal brain slices of 475 microns are sectioned with a McIlwain tissue chopper. Slices are then incubated in a temperature controlled chamber of 34 degrees centigrade while being perfused with an artificial cerebral spinal fluid (NaCl 126 mM; KCl, 4; KH2 PO4, 1.4; MgSO4, 1.3; CaCl2, 2.4; NaHCO3, 26 and glucose, 4) saturated with 95% O2 and 5% CO2.
After an initial one hour equilibration period, the slices are tested for electrophysiological function. Electrical stimulation is given in the region of the CA3 collaterals with a bipolar twisted wire electrode. Evoked responses are recorded extracellularly in the pyramidal cell layer of the CA1 region. Stimulation is given for a duration of 40 microseconds in square wave pulses. The peak-to-peak amplitude of the resultant evoked potential response is then monitored.
Hippocampal slices from one animal are placed in two chambers. One chamber is used as a control and receives standard artificial cerebral spinal fluid (ACSF) while the second receives felbamate. In each chamber, one slice is stimulated every 30 seconds to monitor evoked potential response. Other slices in the chamber are not continuously stimulated. In these latter slices, designated as non-stimulated, the evoked potential response is assessed only at the beginning and end of the experiment. Only slices with initial evoked potentials of 3 mV or greater amplitude are included for testing.
The experimental chamber is perfused with oxygenated artificial cerebral spinal fluid (ACSF) containing felbamate for 30 minutes before the initiation of hypoxic conditions. The control chamber continues to receive oxygenated ACSF without felbamate during this period. Hypoxic conditions are then initiated simultaneously in both chambers by changing to perfusing media saturated with 95% N2 and 5% CO2. The experimental chamber receives nitrogenated ACSF with felbamate while the control chamber receives nitrogenated ACSF without felbamate.
The duration of hypoxic exposure for both chambers is determined by the disappearance of the hypoxic injury potential (HIP) in the control stimulated slice. This potential appears during hypoxia after the disappearance of the original evoked potential. Although hippocampal slices can vary in their temporal response to hypoxia, the HIP is a reliable marker of permanent hypoxic injury. For this reason, the disappearance of the HIP is chosen to determine length of hypoxic exposure. Hypoxia is continued in both chambers for 5 minutes beyond the disappearance of the HIP in the stimulated control slice.
After hypoxic exposure, slices are monitored through one hour of recovery with oxygenated ACSF. The felbamate chamber receives oxygenated ACSF with felbamate for the first 15 minutes of this recovery and then standard oxygenated ACSF for the remaining 45 minutes of recovery. After a one-hour recovery period, the percentage of evoked potential amplitude recovery is assessed in both stimulated and non-stimulated slices. This percentage is calculated as the evoked potential amplitude after recovery divided by the evoked potential amplitude prior to hypoxic exposure.
This protective action is assessed by several measures. First, evoked potential recovery is assessed in both stimulated and non-stimulated slices. Additionally, hypoxic protection is calculated for both stimulated and non-stimulated slices. This measure is calculated as the damage seen in control slices minus the damage seen in experimental (felbamate) slices divided by the damage seen in control slices. For these purposes damage is defined as 100 percent minus percent recovery. The determination of hypoxic protection helps take into account any survival seen in control slices. Lastly, counts of total surviving slices were made. […]

For `O=C(O)c1cc(O)c2c(Cl)cc(Cl)cc2n1` [[^3 H]5,7DCKA, [^3 H]5,7-dichlorokynurenic acid], the Kd [1] is listed as 0.069 µM.
In the case of `NC(=O)OCC(COC(N)=O)c1ccccc1` [felbamate, 2-phenyl-1,3-propanediol dicarbamate], the “anticonvulsant ED50 for MES” value [2] is given as 46 mg/kg, the protective index [3] is given as 16.9-19.1 and the “anticonvulsant ED50 for metrazol” value [4] is given as 238 mg/kg. It also gave an IC50 ([5]; IC50, inhibition of [3H]5,7DCKA, 10 uM-10 mM, combined data of three experiments on a single graph, FIG. 2) of 374 µM, an IC50 ([5]; IC50 value (mean +/- SEM), mean of the felbamate displacement experiments) of 477 ± 49 µM and a Ki ([5]; K estimate for inhibition of [3H]5,7DCKA (mean +/- SEM), calculated, mean of experiments, FIG. 2) of 368 ± 37 µM. For the same molecule, the Ki ([5]; K estimate for inhibition of [3H]5,7DCKA, calculated from IC50 of combined data) was 289 µM, the Hill slope ([5]; combined displacement data, FIG. 2) was -0.93 and the “mode of inhibition of [3H]5,7DCKA binding” value ([5]; rat forebrain membranes, FIG. 2) was “competitively inhibits”. For the same molecule, the neuroprotection against hypoxia ([6]; 380 uM, 840 uM, 1,300 uM and 1,700 uM) was “Significant neuroprotection”, the “counts of surviving stimulated slices” value ([6]; 1,300 and 1,700 uM, survival criterion 3 mV) was “substantial felbamate protection” and the “toxicity for electrophysiological function” value ([6]; high concentration of felbamate) was “no evidence of toxicity”. The “toxicity (permanent evoked potential loss)” value ([6]; pre-hypoxic incubation, felbamate perfusion) was “no evidence of toxicity”, the “evoked potential (population spike) recovery” value ([6]; stimulated slices, 4 uM) was 2% and the “evoked potential (population spike) recovery” value ([6]; stimulated slices, 190 uM) was 6%. For the same molecule, the “evoked potential (population spike) recovery” value ([6]; stimulated slices, 380 uM) was 13%, the “evoked potential (population spike) recovery” value ([6]; stimulated slices, 840 uM) was 46% and the “evoked potential (population spike) recovery” value ([6]; stimulated slices, 1,300 uM) was 95%. For the same molecule, the “delay of appearance of the hypoxic injury potential (HIP)” value ([6]; stimulated slices, 1,700 uM) was 14.5 min, the “evoked potential (population spike) recovery” value ([6]; stimulated slices, 1,700 uM) was 96% and the “effect on disappearance of the evoked potential” value ([6]; stimulated slices, 1,700 uM, hypoxia) was “did not affect”. For the same molecule, the “counts of surviving non-stimulated slices” value ([6]; survival criterion 3 mV) was “substantial protection”.

From patent US5256690A, “Method for treating and controlling the symptoms of neurodegenerative disease and neuropsychopharmacological disorders” (Carter-Wallace, Inc., priority 1992, dated 1993)
